The subject of data set [1] is Roundup Ready cotton event 1445. Briefly: Field trial, cotton lint yield after glyphosate treatment (10 locations). Type of data set: in vivo, Gossypium hirsutum. The source says: (§1) The field trials were arranged in a randomized split plot design with three replications and three treatments. The events were planted in two row, 30-foot plots. The treatments consisted of unsprayed, 64 oz/A (1.5 lb ae/A) Roundup Ultra® at the 4, 6, 10, 14-node stages, and 96 oz/A (2.25 lb ae/A) Roundup Ultra® at the 4, 6, 10, 14-node stages. A mid-season plant map was completed on ten plants per plot. Boll retention data was collected for the first and second fruiting positions of the first five fruiting nodes that provides a boll retention value scale of 0-10. A plant with a boll retention value equal to or greater than 3 on the 0-10 scale has value as a new glyphosate tolerant plant selection.
(§2) Yield is a measure of boll retention, cotton plants engineered for glyphosate tolerance that retain a substantial number of bolls in the first and second fruiting positions will maintain a yield advantage over cotton plants that are not as glyphosate tolerant. An effective dose of a glyphosate containing herbicide to control weeds in a field of MON 88913 comprises about 4 oz/A and may exceed 128 oz/A depending on the species of weed to be controlled and the stage of weed development. Glyphosate can be mixed with other herbicides to enhance the herbicidal activity against certain weed species.

The subject of the next data set is cotton event MON 88913. The description is as above. Type of data set: in vivo, Gossypium hirsutum.
Text: as §1, §2

Setting [2] is: glyphosate 1.5 lb ae/A (64 oz/A Roundup Ultra) at the 4, 6, 10, 14-node stages.
[3] abbreviates: glyphosate 2.25 lb ae/A (96 oz/A Roundup Ultra) at the 4, 6, 10, 14-node stages.

The structures appear in SMILES notation.

Turning to `O=C(O)CNCP(=O)(O)O` [Glyphosate, N-phosphonomethylglycine], the “Yield (lb/A) of 10 Locations, cotton lint” value in data set [1] (setting [2]) is on record as 1044.19 lb/A; in data set [1] (setting [3]), 831.47 lb/A; in the data set with cotton event MON 88913 (setting [2]) it was 2587.61 lb/A; in the data set on cotton event MON 88913 (setting [3]), 2412.3 lb/A.

The record behind these values is patent US8071735B2, “Cotton event MON 88913 and compositions and methods for detection thereof” (priority 2003, dated 2011).
